Literature values, collected in publication PMC2787808 (Peptides, 2009).

Columns and labels:
HT-29 cells = settings: ref [2]
[1] = system: G17-Gly binding sites on DLD-1 cells; settings: previous study; ref [11]

For “pGlu-Gly-Pro-Trp-Leu-(Glu)5-Ala-Tyr [G17(1–12)]”, the “Stimulation of proliferation of HT-29 cells” value (HT-29 cells) is given as “stimulates nonbiphasic proliferation” and the “Binding sites and affinity on DLD-1 cells” value [1] is given as “binds to two sites”.
